Results taken from ChEMBL document CHEMBL1130455, “Synthesis and antirheumatic activity of novel tetrahydro-6-quinolineacetic acid derivatives” (1997).

Columns and labels:
Assay type in all cases: functional
Rattus norvegicus [1] = assay: Inhibitory effect on adjuvant arthritis in rats at a dose of 25 mg/kg, (the value is obtained by comparison between the non-injected paw volumes of the arthritic and control).
Mus musculus [2] = assay: Inhibitory effect on vascular permeability in mice [inhibitory rate of compound 100 mg/kg administered perorally]/[inhibitory rate of diclofenac-Na 25 mg/kg administered perorally]
Ovis aries = organism: Ovis aries; assay: In vitro inhibitory effect of anti-sheep erythrocyte IgM antibody-producing cells, (value is obtained by the number of IgM-PFC in the tested group and that in the control) at a concentration of 2*10e-6M
Rattus norvegicus [3] = assay: Inhibitory effect on adjuvant arthritis in rats at a dose of 12.5 mg/kg, (the value is obtained by comparison between the non-injected paw volumes of the arthritic and control)
Rattus norvegicus [4] = assay: Inhibitory effect on adjuvant arthritis in rats at a dose of 100 mg/kg (the value is obtained by comparison between the non-injected paw volumes of the arthritic and control)
Rattus norvegicus [5] = assay: Inhibitory effect on adjuvant arthritis in rats at a dose of 25 mg/kg (the value is obtained by comparison between the non-injected paw volumes of the arthritic and control)
Rattus norvegicus [6] = assay: Inhibitory effect on adjuvant arthritis in rats at a dose of 50 mg/kg (the value is obtained by comparison between the non-injected paw volumes of the arthritic and control)
Rattus norvegicus [7] = assay: Inhibitory effect on adjuvant arthritis in rats at a dose of 25 mg/kg (the value is obtained by comparison between the non-injected paw volumes of the arthritic and control).
Rattus norvegicus [8] = assay: Inhibitory effect on adjuvant arthritis in rats at a dose of 12.5 mg/kg (the value is obtained by comparison between the non-injected paw volumes of the arthritic and control).
Rattus norvegicus [9] = assay: Inhibitory effect on adjuvant arthritis in rats at a dose of 10 mg/kg (the value is obtained by comparison between the non-injected paw volumes of the arthritic and control)
Rattus norvegicus [10] = assay: Inhibitory effect on adjuvant arthritis in rats at a dose of 25.0 mg/kg (the value is obtained by comparison between the non-injected paw volumes of the arthritic and control).; conditions: for inhibition in vivo at 25 mg/kg: Rattus norvegicus
Mus musculus [11] = assay: Inhibitory effect on vascular permeability in mice [inhibitory rate of compound 50 mg/kg administered perorally]/[inhibitory rate of diclofenac-Na 25 mg/kg administered perorally]
Rattus norvegicus [12] = assay: Inhibitory effect on adjuvant arthritis in rats at a dose of 12.5 mg/kg (the value is obtained by comparison between the non-injected paw volumes of the arthritic and control)
Rattus norvegicus [13] = assay: Bone damage score on day 27(the result of radiolgic analysis of non-injected paws on day 27) the bone destruction advances in the articular of adjuvant arthritic rat at a dose of 25 mg/kg
Rattus norvegicus [14] = assay: Inhibitory effect on adjuvant arthritis in rats at a dose of 6.3 mg/kg (the value is obtained by comparison between the non-injected paw volumes of the arthritic and control).
Rattus norvegicus [15] = organism: Rattus norvegicus; assay: The suppression of calcium release from bone stimulated with PTH in vitro at a concentration of 10.0 ug/mL expressed as percent inhibition of bone resorption
Rattus norvegicus [16] = organism: Rattus norvegicus; assay: The suppression of calcium release from bone stimulated with PTH in vitro at a concentration of 2.0 ug/mL expressed as percent inhibition of bone resorption.
Rattus norvegicus [17] = organism: Rattus norvegicus; assay: The suppression of calcium release from bone stimulated with IL1-beta in vitro at a concentration of 10.0 ug/mL expressed as percent inhibition of bone resorption
Rattus norvegicus [18] = organism: Rattus norvegicus; assay: The suppression of calcium release from bone stimulated with PTH in vitro at a concentration of 0.4 ug/mL expressed as percent inhibition of bone resorption.
Rattus norvegicus [19] = organism: Rattus norvegicus; assay: The suppression of calcium release from bone stimulated with IL1-beta in vitro at a concentration of 2.0 ug/mL expressed as percent inhibition of bone resorption.
Rattus norvegicus [20] = organism: Rattus norvegicus; assay: The suppression of calcium release from bone stimulated with IL1-beta in vitro at a concentration of 0.4 ug/mL expressed as percent inhibition of bone resorption
Rattus norvegicus [21] = assay: Bone damage score on day 27(the result of radiolgic analysis of non-injected paws on day 27) the bone destruction advances in the articular of adjuvant arthritic rat at a dose of 0.5 mg/kg

`CC1CCc2cc(CC(=O)O)cc(Cl)c2N1` (stereo not given) was tested, and the inhibition in vivo at 25 mg/kg (Rattus norvegicus [1]) was 56%, the inhibition ratio vs diclofenac (Mus musculus [2]) was 1.94 and the Inhibition (Ovis aries) was 60%. The inhibition in vivo at 12.5 mg/kg (Rattus norvegicus [3]) was 42%.

In the case of `O=C(O)Cc1cc(Cl)c2c(c1)CCC(c1ccccc1F)N2` (stereo not given), the inhibition in vivo at 100 mg/kg (Rattus norvegicus [4]) is reported as 64%, the inhibition in vivo at 25 mg/kg (Rattus norvegicus [5]) is reported as 19% and the inhibition in vivo at 50 mg/kg (Rattus norvegicus [6]) is reported as 52%. It also gave an inhibition ratio vs diclofenac (Mus musculus [2]) of 2.09.

`CCCC1CCc2cc(CC(=O)O)cc(Cl)c2N1` (stereo not given) showed an inhibition ratio vs diclofenac (Mus musculus [2]) of 1.59, an inhibition in vivo at 25 mg/kg (Rattus norvegicus [7]) of 47% and an inhibition in vivo at 12.5 mg/kg (Rattus norvegicus [8]) of 32%.

With `O=C(O)Cc1cc(Cl)c2c(c1)CCCN2` the inhibition in vivo at 100 mg/kg (Rattus norvegicus [4]) was 55%, the inhibition in vivo at 10 mg/kg (Rattus norvegicus [9]) was 27% and the inhibition in vivo at 50 mg/kg (Rattus norvegicus [6]) was 20%. The inhibition ratio vs diclofenac (Mus musculus [2]) was 1.44.

For `CC1(C)CCc2cc(CC(=O)O)cc(Cl)c2N1`, the inhibition ratio vs diclofenac (Mus musculus [2]) was 1.22.

`O=C(O)Cc1cc(Cl)c2c(c1)CCC(C(=O)O)N2` (stereo not given) showed an inhibition ratio vs diclofenac (Mus musculus [2]) of 0.

In the case of `O=C(O)Cc1ccc2c(c1)CCCN2`, the inhibition ratio vs diclofenac (Mus musculus [2]) is reported as 1.06.

`CCC1CCc2cc(CC(=O)O)cc(Cl)c2N1` (stereo not given) showed an inhibition ratio vs diclofenac (Mus musculus [2]) of 1.54.

In the case of `O=C(O)Cc1cc(Cl)c2c(c1)CCC(C(F)(F)F)N2` (stereo not given), the Inhibition (Rattus norvegicus [10]; 25 mg/kg) is reported as 46%, the inhibition in vivo at 25 mg/kg (Rattus norvegicus [10]) is reported as 45% and the inhibition ratio vs diclofenac (Mus musculus [11]) is reported as 0.99. The inhibition ratio vs diclofenac (Mus musculus [2]) was 1.48, the Inhibition (Ovis aries) was 71% and the inhibition in vivo at 12.5 mg/kg (Rattus norvegicus [8]) was 36%.

`CC(C)C1CCc2cc(CC(=O)O)cc(Cl)c2N1` (stereo not given) showed an inhibition ratio vs diclofenac (Mus musculus [2]) of 1.1.

`O=C(O)Cc1cc(Cl)c2c(c1)CCC(c1ccccc1)N2` (stereo not given) was tested, and the inhibition ratio vs diclofenac (Mus musculus [2]) was 1.63.

Work on `COc1ccc(C2CCc3cc(CC(=O)O)cc(Cl)c3N2)cc1` (stereo not given) yielded an inhibition ratio vs diclofenac (Mus musculus [2]) of 0.62.

`O=C(O)Cc1cc(Cl)c2c(c1)CC[C@H](C(F)(F)F)N2` gave an inhibition in vivo at 25 mg/kg (Rattus norvegicus [10]) of 20%, an inhibition ratio vs diclofenac (Mus musculus [11]) of 0.43 and an inhibition in vivo at 12.5 mg/kg (Rattus norvegicus [12]) of 3%. For the same molecule, the inhibition ratio vs diclofenac (Mus musculus [2]) was 1.5.

Molecule `O=C(O)Cc1cc(Cl)c2c(c1)CC[C@@H](C(F)(F)F)N2` has a Bone damage score (Rattus norvegicus [13]) of 2.5, an inhibition in vivo at 6.3 mg/kg (Rattus norvegicus [14]) of 25% and an Inhibition (Rattus norvegicus [15]) of 94%. For the same molecule, the inhibition in vivo at 25 mg/kg (Rattus norvegicus [10]) was 60%, the inhibition ratio vs diclofenac (Mus musculus [11]) was 1.28 and the Inhibition (Rattus norvegicus [16]) was 61%. For the same molecule, the Inhibition (Rattus norvegicus [17]) was 97%, the Inhibition (Rattus norvegicus [18]) was 41% and the inhibition ratio vs diclofenac (Mus musculus [2]) was 1.62. It also gave an Inhibition (Rattus norvegicus [19]) of 78%, an inhibition in vivo at 12.5 mg/kg (Rattus norvegicus [8]) of 34% and an Inhibition (Rattus norvegicus [20]) of 24%.

`O=C([O-])Cc1ccccc1Nc1c(Cl)cccc1Cl.[Na+]` [DICLOFENAC SODIUM] gave a Bone damage score (Rattus norvegicus [21]) of 4.3.
